# In patent US6348614B1 (priority 1996, dated 2002):
# Like-named read-outs stand apart in the source and are kept apart here.
# Assays:
# Phytophthora infestans [1] = details: applied to leaves of tomato; cited from earlier work
# [2] = tested on: Pseudoperonospora cubensis; assay: Downy mildew in cucumber (Table 8); details: 500 ppm, 7 days after inoculation
# Experimental: (§1) Cucumber plants (cv,Dlila) and melon plants (cv.Ein Dor) were raised from seeds in 0.2 liter pots in the greenhouse. At 3 weeks after sowing when had 3 true leaves they were inoculated with sporangial suspension (1000 sporangia/ml) of P.cubensis (resistant to metalaxyl) and placed in 100% relative humidity in the dark for 20 hr. They were then place in a 20° C. growth cabinet for 7 days and assessed for disease development. Percentage leaf area covered with disease symptoms was evaluated and control efficacy was calculated relative to control inoculated plants.
# Phytophthora infestans [3] = assay type: in vivo; details: Tomato, 500 ppm, 7 days after inoculation
# [4] = tested on: Erysiphe graminis tritici; assay: Powdery mildew in wheat (Table 5)
# Source text: (§2) For the following experiments we have used 10-days old potted wheat plants (Triticum asetivum cultivar Atir) and barley plants (Hhordeum vulgaris cultivar Amidon).
# (§3) Plants were sprayed with the test compounds and two days lated were inoculated with the powdery mildew fungal pathogens. Wheat was inoculated with Erysiphe granims tritici. Barley was inoculated with the powdery Erysiphe granims hordei.
# (§4) Inoculation was done by shaking infected donor plants harboring abundant conidia over the treated plants. Untreated plants were also inoculated as controls. Inoculated plants were placed in a growth chamber at 20-22C with 1 rhr photoperioed and 50-60% RH. At 9-10 days after inoculation disease intesity was visually assessed by estimating the percentage leaf area occupied by fungal colonies.
# (§5) Control efficacy of the disease achieved by the sprayed test compound was calculated relative to the amount of disease seen in the control.
# Phytophthora infestans [5] = assay type: in vivo
# Erysiphe graminis hordei = assay: Powdery mildew in barley (Table 5)
# Source text: as §2, §3, §4, §5
# Phytophthora infestans [6] = assay type: in vivo; remark: listed apart in the source
# Venturia inaequalis = details: 0.03 M; cited from earlier work
# cladosporium cucumerinum = details: cited from earlier work
# [7] = tested on: Erysiphe graminis tritici; assay: Powdery mildew in wheat, additional examples (Table 6); assay type: in vivo; details: 500 ppm, 7 days after inoculation
# Experimental: Wheat plants (cv.Shafir) were raised from seed in the greenhouse, 30 plants per 0.2 liter pot. When the first leaf was fully developed plants were sprayed with the test solutions and placed in a 20° C. growth cabinet. Two days after spraying plants were dusted with conidia of E. graminis tritict so that about 100 spores were settled on 1 cm^2 of leaf area (both surfaces). […] Control efficacy was calculated relative to number of colonies developed on the control-inoculated untreated plants.
# [8] = tested on: Pseudoperonospora cubensis; assay: Downy mildew in melon (Table 7); details: 500 ppm, 7 days after inoculation
# Experimental: as §1
# Plasmopara viticola = assay: Downy mildew in grapes (Table 9); assay type: in vivo; details: 500 ppm, 10 days after inoculation
# Experimental: Two days after spraying plants were inoculated with sporangial suspension of P.viticola ([…]) onto their lower leaf surface and placed in 100% relative humidity for 20 hr. The plants were then placed in a growth cabinets 20° C. for 10 days. Disease development was assessed according to the abaxial leaf surfaces area covered with fungal sporulation.
# [9] = Wheat 7.8.96, dose 500 (unit not given)
# [10] = Wheat 7.8.96, dose 2000 (unit not given)
# [11] = Barley 17.9.96, dose 500 (unit not given)
# [12] = Barley 17.9.96, dose 2000 (unit not given)
molecule,measurement,setting,value
CC(N)CC(=O)O (racemic) [DL-β-aminobutyric acid],protection of tomato leaves,Phytophthora infestans [1],protected those leaves
"CCCCC(C)OC(=O)CC(C)NC(=O)c1ccccc1NC (centres unmarked) [compound 52, D,L N-2-methylaminobenzoyl-3-aminobutyric acid 1-methylpentyl ester]",Control efficacy (%) 7d,[2],97%
same,Control efficacy (%) 7d,Phytophthora infestans [3],75%
N-β-methyl benzoyl-3 aminobutyric acid-sec. butyl ester [Example 4],Control Efficacy %,[4]; [9],96%
same,Control Efficacy %,[4]; [10],96%
same,Control Efficacy %,"Phytophthora infestans [5]; Potato, 14.8.96, 2000 ppm",77%
same,Control Efficacy %,"Phytophthora infestans [5]; Potato, 17.7.096, 500 ppm",56%
same,Control Efficacy %,"Phytophthora infestans [5]; Potato, 17.7.096, 2000 ppm",75%
same,Control Efficacy %,"Phytophthora infestans [5]; Potato, 26.7.96, 500 ppm",23%
same,Control Efficacy %,"Phytophthora infestans [5]; Potato, 26.7.96, 2000 ppm",42%
same,Control Efficacy %,Erysiphe graminis hordei; [11],87%
same,Control Efficacy %,Erysiphe graminis hordei; [12],95%
same,Control Efficacy %,"Phytophthora infestans [6]; Tomato, 12.7.96, 2000 ppm",85%
same,Control Efficacy %,"Phytophthora infestans [6]; Tomato, 14.8/96, 2000 ppm",90%
CC(C)CC(N)C(=O)O (stereo not drawn) [DL leucine],reduction of scab in apple,Venturia inaequalis,reduce scab
"Cc1ccc(C(=O)NC(C)CC(=O)OCCC(Cl)(Cl)Cl)cc1 (centres unmarked) [compound 36, D,L N-4-methylbenzoyl-3-aminobutyric acid 2-(trichloromethyl)ethyl ester]",Control efficacy (%) 7d,[2],82%
same,Control efficacy (%) 7d,Phytophthora infestans [3],81%
CCC(N)C(=O)O (racemic) [DL-α-aminobutyric acid],reduction of scab in apple,Venturia inaequalis,reduce scab
"CC(CC(=O)NCc1ccccc1)NS(=O)(=O)c1ccccc1 (racemic) [Example 1, D,L-N-benzenesulfonyl-3-amino N-benzyl butyramide]",Control Efficacy %,"Phytophthora infestans [5]; Potato, 14.8.96, 2000 ppm",72%
same,Control Efficacy %,"Phytophthora infestans [5]; Potato, 17.7.096, 500 ppm",57%
same,Control Efficacy %,"Phytophthora infestans [5]; Potato, 17.7.096, 2000 ppm",77%
same,Control Efficacy %,"Phytophthora infestans [5]; Potato, 26.7.96, 500 ppm",49%
same,Control Efficacy %,"Phytophthora infestans [5]; Potato, 26.7.96, 2000 ppm",79%
same,Control Efficacy %,Erysiphe graminis hordei; [11],25%
same,Control Efficacy %,Erysiphe graminis hordei; [12],75%
same,Control Efficacy %,"Phytophthora infestans [6]; Tomato, 12.7.96, 500 ppm",82%
same,Control Efficacy %,"Phytophthora infestans [6]; Tomato, 12.7.96, 2000 ppm",97%
same,Control Efficacy %,"Phytophthora infestans [6]; Tomato, 14.8/96, 2000 ppm",90%
N[C@H](CO)C(=O)O [D-serine],behaviour as chemotherapeutant against the fungus on cucumber,cladosporium cucumerinum,behaved as chemothrerpeutants
"CC(CC(=O)OC1CCCCC1)NC(=O)c1ccccc1 (centres unmarked) [compound 38, D,L N-benzoyl-3-aminobutyric acid cyclohexyl ester]",Control efficacy (%) 7d,[7],100%
same,Control efficacy (%) 7d,[2],80%
same,Control efficacy (%) 7d,Phytophthora infestans [3],78%
"CCCOC(=O)CC(C)NS(=O)(=O)c1ccc(Cl)cc1 (centres unmarked) [compound 35, D,L N-4-chlorobenzenesulfonyl-3-aminobutyric acid propyl ester]",Control efficacy (%) 7d,[7],81%
same,Control efficacy (%) 7d,[2],77%
same,Control efficacy (%) 7d,Phytophthora infestans [3],81%
"CC(CC(=O)OC1CCCCC1)NS(=O)(=O)c1ccccc1 (centres unmarked) [compound 39, D,L N-benzenesulfonyl-3-aminobutyric acid cyclohexyl ester]",Control efficacy (%) 7d,[2],70%
same,Control efficacy (%) 7d,Phytophthora infestans [3],75%
NC(CO)C(=O)O (racemic) [DL-serine],behaviour as chemotherapeutant against the fungus on cucumber,cladosporium cucumerinum,behaved as chemothrerpeutants
"CC(C)C[C@@H](N)C(=O)O [D-leucine, D-and DL leucine]",reduction of scab in apple,Venturia inaequalis,reduce scab
"CC(CC(=O)OCCCl)NC(=O)c1ccc(Cl)cc1 (racemic) [Example 6, D,L-N-4-chlorobenzoyl-3-aminobutyric acid 2-chloro-ethyl ester]",Control Efficacy %,"Phytophthora infestans [5]; Potato, 14.8.96, 2000 ppm",88%
same,Control Efficacy %,"Phytophthora infestans [5]; Potato, 17.7.096, 500 ppm",75%
same,Control Efficacy %,"Phytophthora infestans [5]; Potato, 17.7.096, 2000 ppm",50%
same,Control Efficacy %,Erysiphe graminis hordei; [11],62%
same,Control Efficacy %,Erysiphe graminis hordei; [12],75%
same,Control Efficacy %,"Phytophthora infestans [6]; Tomato, 12.7.96, 500 ppm",76%
same,Control Efficacy %,"Phytophthora infestans [6]; Tomato, 12.7.96, 2000 ppm",79%
same,Control Efficacy %,"Phytophthora infestans [6]; Tomato, 14.8/96, 2000 ppm",67%
"CCCCCCCOC(=O)CC(C)NS(=O)(=O)c1ccc(Cl)cc1 (centres unmarked) [compound 40, D,L N-4-chlorobenzenesulfonyl-3-aminobutyric acid heptyl ester]",Control efficacy (%) 7d,[2],82%
"Cc1ccc(C(=O)NC(C)CC(=O)OC2CCCCC2)cc1 (centres unmarked) [compound 37, D,L N-4-methylbenzoyl-3-aminobutyric acid cyclohexyl ester]",Control efficacy (%) 7d,[2],75%
same,Control efficacy (%) 7d,Phytophthora infestans [3],78%
"D,L-N-β-methyl benzoyl-3-aminobutyric acid n-octyl ester [Example 3]",Control Efficacy %,"Phytophthora infestans [5]; Potato, 14.8.96, 2000 ppm",88%
same,Control Efficacy %,"Phytophthora infestans [5]; Potato, 17.7.096, 500 ppm",70%
same,Control Efficacy %,"Phytophthora infestans [5]; Potato, 17.7.096, 2000 ppm",81%
same,Control Efficacy %,"Phytophthora infestans [5]; Potato, 26.7.96, 500 ppm",85%
same,Control Efficacy %,"Phytophthora infestans [5]; Potato, 26.7.96, 2000 ppm",92%
same,Control Efficacy %,"Phytophthora infestans [6]; Tomato, 12.7.96, 2000 ppm",70%
same,Control Efficacy %,"Phytophthora infestans [6]; Tomato, 14.8/96, 2000 ppm",93%
C[C@@H](O)[C@H](N)C(=O)O (racemic) [DL-threonine],behaviour as chemotherapeutant against the fungus on cucumber,cladosporium cucumerinum,behaved as chemothrerpeutants
"CC(CC(=O)Nc1ccccc1)NS(=O)(=O)c1ccccc1 (racemic) [Example 2, D,L-N-benzensulfonyl-3-aminobutyranilide]",Control Efficacy %,"Phytophthora infestans [5]; Potato, 14.8.96, 2000 ppm",74%
same,Control Efficacy %,"Phytophthora infestans [5]; Potato, 17.7.096, 500 ppm",45%
same,Control Efficacy %,"Phytophthora infestans [5]; Potato, 17.7.096, 2000 ppm",81%
same,Control Efficacy %,"Phytophthora infestans [5]; Potato, 26.7.96, 500 ppm",42%
same,Control Efficacy %,"Phytophthora infestans [5]; Potato, 26.7.96, 2000 ppm",68%
same,Control Efficacy %,"Phytophthora infestans [6]; Tomato, 12.7.96, 500 ppm",85%
same,Control Efficacy %,"Phytophthora infestans [6]; Tomato, 12.7.96, 2000 ppm",85%
same,Control Efficacy %,"Phytophthora infestans [6]; Tomato, 14.8/96, 2000 ppm",83%
"CCCCCCCCOC(=O)CC(C)NC(=O)c1ccc(Cl)c(Cl)c1 (racemic) [Example 5, D,L-N-3,4-dichlorobenzoyl-3-aminobutyric acid n-octyl ester]",Control Efficacy %,[4]; [9],76%
same,Control Efficacy %,[4]; [10],92%
same,Control Efficacy %,Erysiphe graminis hordei; [11],82%
same,Control Efficacy %,Erysiphe graminis hordei; [12],85%
C[C@@H](N)C(=O)O [D-alaninie],reduction of scab in apple,Venturia inaequalis,reduce scab
"CCCCCCCOC(=O)CC(C)NC(=O)c1ccc(C(C)(C)C)cc1 (centres unmarked) [compound 15, D,L N-4-tertbutylbenzoyl-3-aminobutyric acid heptyl ester]",Control efficacy (%) 7d,[7],74%
same,Control efficacy % 7 days,[8],97%
same,Control efficacy % 10d,Plasmopara viticola,97%
